Patent publication US5744478A, “Thiazolo [3,2-a] quinoline and thiazolo [3,2-a] naphthyridine derivatives” (Bayer Aktiengesellschaft, priority 1994, dated 1998)
Converted amounts (≈) assume the structure as drawn.

Legend:
Assay in all cases: MIC by serial dilution on Iso-Sensitest Agar
Format in all cases: cell-based
[1] = test system: Klebsiella pneumonia 8085; conditions: Klebsiella pneumoniae, 37° C., about 20 hours, about 10^4 colony-forming particles
Procedure: (§1) The minimum inhibitory concentrations (MIC) of the compounds according to the invention were determined by serial dilution methods on Iso-Sensitest Agar (Oxoid). For each test substance, a number of agar plates were prepared which, in each case at double the dilution, contained decreasing concentrations of the active compound. The agar plates were inoculated using a multipoint inoculator (Denley). For inoculation, overnight cultures of the pathogens were used which had previously been diluted such that each inoculation point contained about 10^4 colony-forming particles. The inoculated agar plates were incubated at 37° C., and the bacterial growth was read off after about 20 hours. The MIC value (μg/ml) indicates the lowest active compound concentration at which no growth was to be observed using the naked eye.

[2] = test system: Staphylococcus aureus ICB 25701; conditions: ICB25701, 37° C., about 20 hours, about 10^4 colony-forming particles
Procedure: as §1

[3] = test system: Staphylococcus aureus 133; conditions: 37° C., about 20 hours, about 10^4 colony-forming particles
Procedure: as §1

[4] = test system: Enterococcus faecalis 9790; conditions: 37° C., about 20 hours, about 10^4 colony-forming particles
Procedure: as §1

E. coli Neumann = conditions: Escherichia coli, 37° C., about 20 hours, about 10^4 colony-forming particles
Procedure: as §1

[5] = test system: Staphylococcus aureus ATCC29213; conditions: 37° C., about 20 hours, about 10^4 colony-forming particles
Procedure: as §1

Providencia sp. 12012 = conditions: 37° C., about 20 hours, about 10^4 colony-forming particles
Procedure: as §1

Klebsiella pneumonia 63 = conditions: Klebsiella pneumoniae, 37° C., about 20 hours, about 10^4 colony-forming particles
Procedure: as §1

E. coli ATCC 25922 = conditions: Escherichia coli, ATCC25922, 37° C., about 20 hours, about 10^4 colony-forming particles
Procedure: as §1

Micrococcus luteus 9341 = conditions: 37° C., about 20 hours, about 10^4 colony-forming particles
Procedure: as §1

[6] = test system: Staphylococcus aureus ICB 25768; conditions: ICB25768, 37° C., about 20 hours, about 10^4 colony-forming particles
Procedure: as §1

[7] = test system: Enterococcus faecalis 27101; conditions: 37° C., about 20 hours, about 10^4 colony-forming particles
Procedure: as §1

MIC [1] | MIC [2] | MIC [3] | MIC [4] | MIC (E. coli Neumann) | MIC [5] | MIC (Providencia sp. 12012) | MIC (Klebsiella pneumonia 63) | MIC (E. coli ATCC 25922) | MIC (Micrococcus luteus 9341) | MIC [6] | MIC [7] | Structure (SMILES)
≤ 0.015 µg/mL | 0.06 µg/mL (≈ 0.136 µM) | ≤ 0.015 µg/mL | ≤ 0.015 µg/mL | ≤ 0.015 µg/mL | ≤ 0.015 µg/mL | ≤ 0.015 µg/mL | ≤ 0.015 µg/mL | ≤ 0.015 µg/mL | ≤ 0.015 µg/mL | 0.5 µg/mL (≈ 1.13 µM) | ≤ 0.015 µg/mL | CNC1C=CCC2CN(c3c(F)cc4c(=O)c(C(=O)O)c5scc6n5c4c3OC6)CC21 (stereo not drawn) [Example 3, 7-Fluoro-8-(2-methylamino-8-azabicyclo[4.3.0]non-3-en-8-yl)-5-oxo-9,1-(epoxymethano)-5H-thiazolo[3,2-a]quinoline-4-carboxylic acid]
≤ 0.015 µg/mL | 0.06 µg/mL (≈ 0.14 µM) | ≤ 0.015 µg/mL | ≤ 0.015 µg/mL | ≤ 0.015 µg/mL | ≤ 0.015 µg/mL | ≤ 0.015 µg/mL | ≤ 0.015 µg/mL | ≤ 0.015 µg/mL | ≤ 0.015 µg/mL | 0.25 µg/mL (≈ 0.585 µM) | ≤ 0.015 µg/mL | NC1C=CCC2CN(c3c(F)cc4c(=O)c(C(=O)O)c5scc6n5c4c3OC6)CC12 (stereo not drawn) [Example 4, 8-(2-Amino-8-azabicyclo[4.3.0]non-3-en-8-yl)-7-fluoro-5-oxo-9,1-(epoxymethano)-5H-thiazolo[3,2-a]quinoline-4-carboxylic acid]
≤ 0.015 µg/mL | 0.06 µg/mL (≈ 0.136 µM) | ≤ 0.015 µg/mL | ≤ 0.015 µg/mL | ≤ 0.015 µg/mL | ≤ 0.015 µg/mL | ≤ 0.015 µg/mL | ≤ 0.015 µg/mL | ≤ 0.015 µg/mL | ≤ 0.015 µg/mL | 0.5 µg/mL (≈ 1.13 µM) | ≤ 0.015 µg/mL | CC1C=CC(N)C2CN(c3c(F)cc4c(=O)c(C(=O)O)c5scc6n5c4c3OC6)CC12 (stereo not drawn) [Example 5, 8-(2-Amino-5-methyl-8-azabicyclo[4.3.0]non-3-en-8-yl)-7-fluoro-5-oxo-9,1-(epoxymethano)-5H-thiazolo[3,2-a]quinoline-4-carboxylic acid]
≤ 0.015 µg/mL | 0.5 µg/mL (≈ 1.2 µM) | ≤ 0.015 µg/mL | 0.03 µg/mL (≈ 0.0722 µM) | ≤ 0.015 µg/mL | ≤ 0.015 µg/mL | ≤ 0.015 µg/mL | ≤ 0.015 µg/mL | ≤ 0.015 µg/mL | 0.125 µg/mL (≈ 0.301 µM) | 32 µg/mL (≈ 77 µM) | 0.03 µg/mL (≈ 0.0722 µM) | O=C(O)c1c(=O)c2cc(F)c(N3C[C@@H]4CCCN[C@@H]4C3)c3c2n2c(csc12)CO3 [Example 2]
